Results as given in ChEMBL document CHEMBL1201862, “PubChem BioAssay data set” (2004).
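96-well plates; 48 h exposure; 5 concentrations. Endpoints by linear interpolation between flanking doses. Not reached: highest tested concentration assigned. GI50: concentration for 50% inhibition of growth.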 Active and inactive are the calls of the source. No stated cut-off is given here; in the data, active = GI50 up to about 1.1 µM and inactive = higher.

Columns and labels:
Test in all cases: NCI tumour cell line growth inhibition, 48 h
786-0 = test system: 786-0
A498 = test system: A498
A549 = test system: A549
ACHN = test system: ACHN
CAKI-1 = test system: CAKI-1
CCRF-CEM = test system: CCRF-CEM
COLO 205 = test system: COLO 205
DLD-1 = test system: DLD-1
DMS-114 = test system: DMS-114
DMS-273 = test system: DMS-273
EKVX = test system: EKVX
HCC 2998 = test system: HCC 2998
HCT-116 = test system: HCT-116
HCT-15 = test system: HCT-15
HL-60 = test system: HL-60
HOP-18 = test system: HOP-18
HOP-62 = test system: HOP-62
HOP-92 = test system: HOP-92
HT-29 = test system: HT-29
IGROV-1 = test system: IGROV-1
K562 = test system: K562
KM-20L2 = test system: KM-20L2
KM12 = test system: KM12
LOX IMVI = test system: LOX IMVI
LXFL 529 = test system: LXFL 529
M14 = test system: M14
M19-MEL = test system: M19-MEL
MOLT-4 = test system: MOLT-4
Malme-3M = test system: Malme-3M
NCI-H226 = test system: NCI-H226
NCI-H23 = test system: NCI-H23
NCI-H460 = test system: NCI-H460
NCI-H522 = test system: NCI-H522
OVCAR-3 = test system: OVCAR-3
OVCAR-4 = test system: OVCAR-4
OVCAR-5 = test system: OVCAR-5
OVCAR-8 = test system: OVCAR-8
RPMI-8226 = test system: RPMI-8226
RXF 393 = test system: RXF 393
RXF 631 = test system: RXF 631
SF-268 = test system: SF-268
SF-295 = test system: SF-295
SF-539 = test system: SF-539
SK-MEL-28 = test system: SK-MEL-28
SK-MEL-2 = test system: SK-MEL-2
SK-MEL-5 = test system: SK-MEL-5
SK-OV-3 = test system: SK-OV-3
SN12C = test system: SN12C
SNB-19 = test system: SNB-19
SNB-75 = test system: SNB-75
SNB-78 = test system: SNB-78
SR = test system: SR
SW-620 = test system: SW-620
TK-10 = test system: TK-10
U-251 = test system: U-251
UACC-257 = test system: UACC-257
UACC-62 = test system: UACC-62
UO-31 = test system: UO-31
XF498 = test system: XF498

With `O=C1c2ccccc2C(=O)N1/N=C\c1ccc(Br)cc1` the GI50 (786-0) was > 10 µM (inactive), the GI50 (A498) was > 10 µM (inactive) and the GI50 (A549) was > 10 µM (inactive). The GI50 (ACHN) was > 10 µM (inactive), the GI50 (CAKI-1) was > 10 µM (inactive) and the GI50 (CCRF-CEM) was > 10 µM (inactive). The GI50 (COLO 205) was > 100 µM (inactive), the GI50 (DLD-1) was > 10 µM (inactive) and the GI50 (DMS-114) was > 10 µM (inactive). For the same compound, the GI50 (DMS-273) was > 10 µM (inactive), the GI50 (EKVX) was > 10 µM (inactive) and the GI50 (HCC 2998) was > 10 µM (inactive). For the same compound, the GI50 (HCT-116) was > 10 µM (inactive), the GI50 (HCT-15) was greater than 10 µM and the GI50 (HL-60) was > 10 µM (inactive). The GI50 (HOP-18) was > 10 µM (inactive), the GI50 (HOP-62) was > 10 µM (inactive) and the GI50 (HOP-92) was > 10 µM (inactive). For the same compound, the GI50 (HT-29) was > 10 µM (inactive), the GI50 (IGROV-1) was > 10 µM (inactive) and the GI50 (K562) was > 10 µM (inactive). For the same compound, the GI50 (KM-20L2) was > 10 µM (inactive), the GI50 (KM12) was > 10 µM (inactive) and the GI50 (LOX IMVI) was > 10 µM (inactive). The GI50 (LXFL 529) was > 10 µM (inactive), the GI50 (M14) was > 10 µM (inactive) and the GI50 (M19-MEL) was > 10 µM (inactive). For the same compound, the GI50 (MOLT-4) was > 10 µM (inactive), the GI50 (Malme-3M) was > 10 µM (inactive) and the GI50 (NCI-H226) was > 10 µM (inactive). The GI50 (NCI-H23) was > 10 µM (inactive), the GI50 (NCI-H460) was > 10 µM (inactive) and the GI50 (NCI-H522) was > 100 µM (inactive). The GI50 (OVCAR-3) was > 10 µM (inactive), the GI50 (OVCAR-4) was > 10 µM (inactive) and the GI50 (OVCAR-5) was > 10 µM (inactive). The GI50 (OVCAR-8) was > 10 µM (inactive), the GI50 (RPMI-8226) was > 10 µM (inactive) and the GI50 (RXF 393) was > 10 µM (inactive). For the same compound, the GI50 (RXF 631) was > 10 µM (inactive), the GI50 (SF-268) was > 10 µM (inactive) and the GI50 (SF-295) was > 10 µM (inactive). The GI50 (SF-539) was > 10 µM (inactive), the GI50 (SK-MEL-28) was > 10 µM (inactive) and the GI50 (SK-MEL-2) was > 10 µM (inactive). The GI50 (SK-MEL-5) was > 10 µM (inactive), the GI50 (SK-OV-3) was > 100 µM (inactive) and the GI50 (SN12C) was > 10 µM (inactive). The GI50 (SNB-19) was > 10 µM (inactive), the GI50 (SNB-75) was > 10 µM (inactive) and the GI50 (SNB-78) was > 10 µM (inactive). For the same compound, the GI50 (SR) was > 10 µM (inactive), the GI50 (SW-620) was > 10 µM (inactive) and the GI50 (TK-10) was > 10 µM (inactive). The GI50 (U-251) was > 100 µM (inactive), the GI50 (UACC-257) was > 10 µM (inactive) and the GI50 (UACC-62) was > 10 µM (inactive). The GI50 (UO-31) was > 10 µM (inactive) and the GI50 (XF498) was > 10 µM (inactive).
